Measured values: US12215173B2, “Kappa opioid receptor peptide amide ligands” (priority 2019, dated 2025)
Read-outs that look alike come from different tables or passages of the source. Square brackets hold non-standard residues; d marks the D form. Peptide text beside a SMILES is read from it. * marks the point of attachment. Piperidin1yl(4-NH2,4-CO2Me) = COC(=O)C1(N)CCN(*)CC1; Pyrrolidinyl(3-NH2,3-CO2Me) = COC(=O)C1(N)CCN(*)C1; Piperidin1yl(4-NH2,4-COOH) = NC1(C(=O)O)CCN(*)CC1; dAla(cPr) = N[C@H](CC1CC1)C(=O)O

Tests used:
[1] = molecular target: recombinant human kappa (KOR) opioid receptor (Homo sapiens (Human), UniProt P41145); assay: biochemical; assay type: binding; conditions: HEK293 cell membranes, 0.5 nM [3H]diprenorphine
[2] = molecular target: recombinant human mu (MOR) opioid receptor (Homo sapiens (Human), UniProt P35372); assay: Opioid receptor radioligand binding assay, MOR
[3] = molecular target: recombinant human delta (DOR) opioid receptor (Homo sapiens (Human), UniProt P41143); assay: Opioid receptor radioligand binding assay, DOR
recombinant human delta (DOR) opioid receptor, sequence (P41143 whole entry, looked up): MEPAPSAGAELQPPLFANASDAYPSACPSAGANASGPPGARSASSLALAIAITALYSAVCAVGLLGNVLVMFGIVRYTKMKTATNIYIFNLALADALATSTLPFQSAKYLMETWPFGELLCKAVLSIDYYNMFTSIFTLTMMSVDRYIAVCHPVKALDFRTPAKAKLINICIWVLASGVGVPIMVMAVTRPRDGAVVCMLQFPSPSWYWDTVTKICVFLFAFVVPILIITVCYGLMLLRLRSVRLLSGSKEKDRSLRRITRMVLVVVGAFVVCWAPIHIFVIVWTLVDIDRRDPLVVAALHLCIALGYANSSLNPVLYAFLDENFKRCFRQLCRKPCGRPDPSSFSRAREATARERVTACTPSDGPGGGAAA

[4] = molecular target: Opioid Kappa Receptor (recombinant human, HEK293 cells) (Homo sapiens (Human), UniProt P41145); assay: cell-based; conditions: read-out: EC50
[5] = HEK293 cell membranes, 0.5 nM [3H]DAMGO, read-out: MOR, IC50
[6] = HEK293 cell membranes, 0.5 nM [3H]DADLE, read-out: DOR, IC50

Row | SMILES | IC50 [1] | IC50 [2, 5] | IC50 [3, 6] | EC50 [4] | IC50 [2] | IC50 [3] | IC50 ([2]; read-out: MOR, IC50)
1 | COCCOC(=O)C1(N)CCN(C(=O)[C@@H](CCCCN)NC(=O)[C@@H](CC(C)C)NC(=O)[C@@H](Cc2ccccc2)NC(=O)[C@H](N)Cc2ccccc2)C1 (some centres unmarked) [Compound 45] | 0.33 nM | 7370 nM | > 10000 nM | 30.2 nM | – | – | –
2 | CC(C)C[C@@H](NC(=O)[C@@H](Cc1ccccc1)NC(=O)[C@H](N)Cc1ccccc1)C(=O)N[C@H](CCCCN)C(=O)N1CCC(N)(C(=O)OCCO)C1 (some centres unmarked) [Compound 50] | 0.39 nM | 7530 nM | > 10000 nM | 9.07 nM | – | – | –
3 | CC(C)C[C@@H](NC(=O)[C@@H](Cc1ccccc1)NC(=O)[C@H](N)Cc1ccccc1)C(=O)N[C@H](CCCCN)C(=O)N1CCC(N)(C(=O)OCCN)C1 (some centres unmarked) [Compound 55] | 0.45 nM | 8530 nM | > 10000 nM | 9.36 nM | – | – | –
4 | CNCCOC(=O)C1(N)CCN(C(=O)[C@@H](CCCCN)NC(=O)[C@@H](CC(C)C)NC(=O)[C@@H](Cc2ccccc2)NC(=O)[C@H](N)Cc2ccccc2)C1 (some centres unmarked) [Compound 60] | 0.94 nM | > 10000 nM | > 10000 nM | 7.19 nM | – | – | –
5 | COC(=O)C1(N)CCN(C(=O)CNC(=O)[C@@H](CCCCN)NC(=O)[C@@H](CC(C)C)NC(=O)[C@@H](Cc2ccccc2)NC(=O)[C@H](N)Cc2ccccc2)CC1 [Compound 66] (H-[dF][dF][dL][dK]G-{Piperidin1yl(4-NH2,4-CO2Me)}) | 20.9 nM | – | – | 12.9 nM | 307 nM | > 10000 nM | –
6 | CC(C)C[C@@H](NC(=O)[C@@H](Cc1ccccc1)NC(=O)[C@H](N)Cc1ccccc1)C(=O)N[C@H](CCCCN)C(=O)NCC(=O)N1CCC(N)(C(=O)O)CC1 [Compound 67] (H-[dF][dF][dL][dK]G-{Piperidin1yl(4-NH2,4-COOH)}) | 24.8 nM | – | – | 51.5 nM | 5150 nM | > 10000 nM | –
7 | CC(C)C[C@@H](NC(=O)[C@@H](Cc1ccccc1)NC(=O)[C@H](N)Cc1ccccc1)C(=O)N[C@H](CCCCN)C(=O)N1CCC2(CC1)NC(=O)NC2=O [Compound 71] | 0.16 nM | – | > 10000 nM | 5.4 nM | – | – | > 10000 nM
8 | COC(=O)C1(N)CCN(C(=O)[C@@H](CCCCN)NC(=O)[C@@H](CC2CC2)NC(=O)[C@@H](Cc2ccccc2)NC(=O)[C@H](N)Cc2ccccc2)CC1 [Compound 112] (H-[dF][dF][dAla(cPr)][dK]-{Piperidin1yl(4-NH2,4-CO2Me)}) | 1 nM | 15.2 nM | > 10000 nM | 5.95 nM | – | – | –
9 | COC(=O)C1(N)CCN(C(=O)[C@@H](CCCCN)NC(=O)[C@@H](CC2CC2)NC(=O)[C@@H](Cc2ccccc2)NC(=O)[C@H](N)Cc2ccccc2)C1 (some centres unmarked) [Compound 118] (H-[dF][dF][dAla(cPr)][dK]-{Pyrrolidinyl(3-NH2,3-CO2Me)}) | 0.33 nM | > 10000 nM | > 10000 nM | 9.31 nM | – | – | –
10 | COC(=O)C1(N)CCN(C(=O)[C@@H](CCCNC(=N)N)NC(=O)[C@@H](CC2CC2)NC(=O)[C@@H](Cc2ccccc2)NC(=O)[C@H](N)Cc2ccccc2)CC1 [Compound 126] (H-[dF][dF][dAla(cPr)][dR]-{Piperidin1yl(4-NH2,4-CO2Me)}) | 0.36 nM | 3030 nM | > 10000 nM | 6.81 nM | – | – | –
11 | COC(=O)C1(N)CCN(C(=O)[C@@H](CCCNC(=N)N)NC(=O)[C@@H](CC2CC2)NC(=O)[C@@H](Cc2ccccc2)NC(=O)[C@H](N)Cc2ccccc2)C1 (some centres unmarked) [Compound 133] (H-[dF][dF][dAla(cPr)][dR]-{Pyrrolidinyl(3-NH2,3-CO2Me)}) | 1.3 nM | > 10000 nM | > 10000 nM | 9.64 nM | – | – | –
